Test results as given in PubChem BioAssay AID1918995 (Molecular Pharmacology Branch, DTP, NCI, 2023).
Values joined by “and” are separate entries in the source; they are usually repeats but may differ in a detail not shown here. Equal entries are not always repeated.

Tested on: 324938-238-R-J1-PDC complex spheroid growth, % test/control
Experiment: Anticancer human tumor 324938-238-R-J1-PDC patient-derived bladder carcinoma cell line growth inhibition [AhR]
Settings: for viability, T/C: stronger effect = lower value
How it was run: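 Agents were dosed in half-log steps down from roughly clinical Cmax, or from 10 microM where Cmax was unknown, alone and with AhR antagonists. Read-out: percent test/control growth of tumor spheroids containing HUVEC and MSC stromal cells.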

[1] = curve of first compound, second compound 0.1 µM
[2] = curve of first compound, second compound 0.316 µM
[3] = curve of first compound, second compound 1 µM
[4] = curve of first compound, second compound 3.16 µM
[5] = curve of first compound, second compound 10 µM
[6] = second compound 0.1 µM, first compound 0.0316 µM
[7] = second compound 0.1 µM, first compound 0.1 µM
[8] = second compound 0.316 µM, first compound 0.0316 µM
[9] = second compound 0.316 µM, first compound 0.1 µM
[10] = second compound 1 µM, first compound 0.0316 µM
[11] = second compound 1 µM, first compound 0.1 µM
[12] = second compound 3.16 µM, first compound 0.0316 µM
[13] = second compound 3.16 µM, first compound 0.1 µM
[14] = second compound 10 µM, first compound 0.0316 µM
[15] = second compound 10 µM, first compound 0.1 µM
[16] = second compound 0.1 µM, first compound 0.316 µM
[17] = second compound 0.1 µM, first compound 1 µM
[18] = second compound 0.1 µM, first compound 3.16 µM
[19] = second compound 0.1 µM, first compound 10 µM
[20] = second compound 0.316 µM, first compound 0.316 µM
[21] = second compound 0.316 µM, first compound 1 µM
[22] = second compound 0.316 µM, first compound 3.16 µM
[23] = second compound 0.316 µM, first compound 10 µM
[24] = second compound 1 µM, first compound 0.316 µM
[25] = second compound 1 µM, first compound 1 µM
[26] = second compound 1 µM, first compound 3.16 µM
[27] = second compound 1 µM, first compound 10 µM
[28] = second compound 3.16 µM, first compound 0.316 µM
[29] = second compound 3.16 µM, first compound 1 µM
[30] = second compound 3.16 µM, first compound 3.16 µM
[31] = second compound 3.16 µM, first compound 10 µM
[32] = second compound 10 µM, first compound 0.316 µM
[33] = second compound 10 µM, first compound 1 µM
[34] = second compound 10 µM, first compound 3.16 µM
[35] = second compound 10 µM, first compound 10 µM
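Further: spheroids exposed to agents for seven days before viability read.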

For `Cn1ncnc1C1c2n[nH]c(=O)c3cc(F)cc(c23)NC1c1ccc(F)cc1` (configuration not stated) + Cc1cncc(-c2nc(NCCc3c[nH]c4ccccc34)c3ncn(C(C)C)c3n2)c1, the IC50 [1] was > 100 nM, the IC50 [2] was > 100 nM and the IC50 [3] was > 100 nM. The IC50 [4] was > 100 nM, the IC50 [5] was < 0.316 nM and the viability, T/C (second compound 0.1 µM, first compound 0.000316 µM) was 92.1%. For the same molecule, the viability, T/C (second compound 0.1 µM, first compound 0.001 µM) was 110%, the viability, T/C (second compound 0.1 µM, first compound 0.00316 µM) was 105% and the viability, T/C (second compound 0.1 µM, first compound 0.01 µM) was 94.5%. It also gave a viability, T/C [6] of 120%, a viability, T/C [7] of 86.2% and a viability, T/C (second compound 0.316 µM, first compound 0.000316 µM) of 108%. It also gave a viability, T/C (second compound 0.316 µM, first compound 0.001 µM) of 113%, a viability, T/C (second compound 0.316 µM, first compound 0.00316 µM) of 138% and a viability, T/C (second compound 0.316 µM, first compound 0.01 µM) of 81.6%. For the same molecule, the viability, T/C [8] was 112%, the viability, T/C [9] was 105% and the viability, T/C (second compound 1 µM, first compound 0.000316 µM) was 78.9%. For the same molecule, the viability, T/C (second compound 1 µM, first compound 0.001 µM) was 142%, the viability, T/C (second compound 1 µM, first compound 0.00316 µM) was 116% and the viability, T/C (second compound 1 µM, first compound 0.01 µM) was 112%. It also gave a viability, T/C [10] of 106%, a viability, T/C [11] of 134% and a viability, T/C (second compound 3.16 µM, first compound 0.000316 µM) of 93.7%. It also gave a viability, T/C (second compound 3.16 µM, first compound 0.001 µM) of 112%, a viability, T/C (second compound 3.16 µM, first compound 0.00316 µM) of 92.6% and a viability, T/C (second compound 3.16 µM, first compound 0.01 µM) of 98.1%. The viability, T/C [12] was 94.2%, the viability, T/C [13] was 99.3% and the viability, T/C (second compound 10 µM, first compound 0.000316 µM) was 9.29%. For the same molecule, the viability, T/C (second compound 10 µM, first compound 0.001 µM) was 12.6%, the viability, T/C (second compound 10 µM, first compound 0.00316 µM) was 9.9% and the viability, T/C (second compound 10 µM, first compound 0.01 µM) was 13%. The viability, T/C [14] was 9.12% and the viability, T/C [15] was 22.1%.

In the case of `CC(C)CC(NC(=O)C(Cc1ccccc1)NC(=O)c1cnccn1)B(O)O` (configuration not stated), the viability, T/C (compound 0.000949 µM) is reported as 87.9% and 116% and 93.5%, the viability, T/C (compound 0.003 µM) is reported as 85.2% and 98.1% and 15.2% and the viability, T/C (compound 0.00949 µM) is reported as 0.63% and 1.24% and 0.3%. The viability, T/C (compound 0.03 µM) was 0.28% and 0.36% and 0.27%, the viability, T/C (compound 0.0949 µM) was 0.78% and 0.3% and 0.27% and the viability, T/C (compound 0.3 µM) was 0.76% and 0.41% and 0.31%. For the same molecule, the IC50 (curve of compound) was 4.84 nM and 5.31 nM and 1.8 nM.

`COc1cc(Nc2ncc3c(n2)-c2ccc(Cl)cc2C(c2c(F)cccc2OC)=NC3)ccc1C(=O)O` + Cc1ccccc1N=Nc1ccc(NC(=O)c2ccnn2C)c(C)c1 showed an IC50 [1] of 139 nM, an IC50 [2] of 101 nM and an IC50 [3] of 85.5 nM. It also gave an IC50 [4] of 66.2 nM, an IC50 [5] of 71 nM and a viability, T/C [6] of 72.5%. The viability, T/C [7] was 55.7%, the viability, T/C [16] was 36.1% and the viability, T/C [17] was 31.9%. The viability, T/C [18] was 31.6%, the viability, T/C [19] was 39.4% and the viability, T/C [8] was 66.7%. For the same molecule, the viability, T/C [9] was 50.1%, the viability, T/C [20] was 32.8% and the viability, T/C [21] was 32.5%. For the same molecule, the viability, T/C [22] was 33.8%, the viability, T/C [23] was 34.3% and the viability, T/C [10] was 65.1%. The viability, T/C [11] was 47.6%, the viability, T/C [24] was 31.6% and the viability, T/C [25] was 31.2%. The viability, T/C [26] was 30.4%, the viability, T/C [27] was 34.8% and the viability, T/C [12] was 57.4%. The viability, T/C [13] was 45.9%, the viability, T/C [28] was 27.5% and the viability, T/C [29] was 28.7%. For the same molecule, the viability, T/C [30] was 27.5%, the viability, T/C [31] was 30.1% and the viability, T/C [14] was 60.4%. The viability, T/C [15] was 49.1%, the viability, T/C [32] was 34.8% and the viability, T/C [33] was 36.9%. It also gave a viability, T/C [34] of 37% and a viability, T/C [35] of 41.7%.

In the case of `CC(C)c1c(-c2ccccc2)nc2c(C#N)c[nH]n2c1=O` + Cc1ccccc1N=Nc1ccc(NC(=O)c2ccnn2C)c(C)c1, the IC50 [1] is reported as > 10000 nM, the IC50 [2] is reported as > 10000 nM and the IC50 [3] is reported as > 10000 nM. The IC50 [4] was > 10000 nM, the IC50 [5] was > 10000 nM and the viability, T/C [6] was 101%. For the same molecule, the viability, T/C [7] was 91.3%, the viability, T/C [16] was 95.5% and the viability, T/C [17] was 83.9%. The viability, T/C [18] was 92.1%, the viability, T/C [19] was 73.9% and the viability, T/C [8] was 87.3%. The viability, T/C [9] was 92.9%, the viability, T/C [20] was 90.7% and the viability, T/C [21] was 81.6%. The viability, T/C [22] was 75.3%, the viability, T/C [23] was 68% and the viability, T/C [10] was 80.1%. For the same molecule, the viability, T/C [11] was 91.8%, the viability, T/C [24] was 76% and the viability, T/C [25] was 80.5%. For the same molecule, the viability, T/C [26] was 68.3%, the viability, T/C [27] was 65.8% and the viability, T/C [12] was 80.1%. The viability, T/C [13] was 81.4%, the viability, T/C [28] was 64.9% and the viability, T/C [29] was 67.5%. It also gave a viability, T/C [30] of 65.7%, a viability, T/C [31] of 56% and a viability, T/C [14] of 70.8%. For the same molecule, the viability, T/C [15] was 75.2%, the viability, T/C [32] was 79.4% and the viability, T/C [33] was 65.1%. For the same molecule, the viability, T/C [34] was 54.4% and the viability, T/C [35] was 61%.
